Measured values as given in patent publication US20220081412A1, “QUINOLINYL-PYRAZINE-CARBOXAMIDE COMPOUNDS AND USES THEREOF” (The Regents of the University of Michigan, priority 2018, published 2022).

Test system: MIA PaCa-2 cells
Experiment: Bru-seq analysis for nascent RNA synthesis (log2FC of genes, GSEA gene sets)
Format: cell-based, human
Settings: 4 h
[1] = PYEON_CANCER_HEAD_AND_NECK_VS_CERVICAL_UP, C2, downregulated
[2] = RIGGINS_TAMOXIFEN_RESISTANCE_DN, C2, downregulated
[3] = SCHLOSSER_MYC_TARGETS_AND_SERUM_RESPONSE_DN, C2, downregulated
[4] = SENGUPTA_NASOPHARYNGEAL_CARCINOMA_UP, C2, downregulated
[5] = SENGUPTA_NASOPHARYNGEAL_CARCINOMA_WITH_LMP1_UP, C2, downregulated
[6] = SHEN_SMARCA2_TARGETS_UP, C2, downregulated
[7] = TAKEDA_TARGETS_OF_NUP98_HOXA9_FUSION_3D_UP, C2, downregulated
[8] = TAKEDA_TARGETS_OF_NUP98_HOXA9_FUSION_6HR_UP, C2, downregulated
[9] = TCANNTGAY_SREBP1_01, TFBT, upregulated
[10] = TGANNYRGCA_TCF11MAFG_01, TFBT, upregulated
[11] = TTTNNANAGCYR_UNKNOWN, TFBT, upregulated
[12] = YANG_BREAST_CANCER_ESR1_LASER_DN, C2, downregulated
[13] = ZHANG_BREAST_CANCER_PROGENITORS_UP, C2, downregulated
[14] = ZHANG_TLX_TARGETS_36HR_DN, C2, downregulated
[15] = ZHANG_TLX_TARGETS_DN, C2, downregulated
[16] = ZHENG_BOUND_BY_FOXP3, C2, downregulated
[17] = top upregulated noncoding genes, MIA PaCa-2 cells
[18] = top upregulated protein-coding genes, MIA PaCa-2 cells

**Q.** How did the ES (OCT1Q5_01, TFBT, upregulated) turn out when `Cc1cc(NC(=O)c2cnc(N3CCNCC3)cn2)c2ncccc2c1` [J28, N-(6-methylquinolin-8-yl)-5-(piperazin-1-yl)pyrazine-2-carboxamide] was run?
**A.** 0.383

**Q.** And the NES (OCT1Q5_01, TFBT, upregulated)?
**A.** 1.568

**Q.** What about the ES (PEA3_Q6, TFBT, upregulated) of the same compound?
**A.** 0.389

**Q.** And the NES (PEA3_Q6, TFBT, upregulated)?
**A.** 1.645

**Q.** What about the log2FC (PHLDB2, downregulated protein-coding gene) of the same compound?
**A.** −0.93

**Q.** What about the log2FC (PTX3, downregulated protein-coding gene) of the same compound?
**A.** −1.04

**Q.** What about the ES [1] of the same compound?
**A.** −0.405

**Q.** And the NES [1]?
**A.** −1.998

**Q.** What about the ES [2] of the same compound?
**A.** −0.420

**Q.** And the NES [2]?
**A.** −1.996

**Q.** And the log2FC (RNVU1-6, downregulated noncoding gene)?
**A.** −1.29

**Q.** What about the ES [3] of the same compound?
**A.** −0.485

**Q.** And the NES [3]?
**A.** −1.909

**Q.** What about the ES [4] of the same compound?
**A.** −0.477

**Q.** And the NES [4]?
**A.** −2.454

**Q.** And the ES [5]?
**A.** −0.503

**Q.** What about the NES [5] of the same compound?
**A.** −2.612

**Q.** What about the ES [6] of the same compound?
**A.** −0.402

**Q.** What about the NES [6] of the same compound?
**A.** −2.248

**Q.** And the log2FC (SLCO1B3, downregulated protein-coding gene)?
**A.** −0.96

**Q.** And the log2FC (SPTY2D1-AS1, downregulated protein-coding gene)?
**A.** −0.93

**Q.** And the ES (SREBP1_01, TFBT, upregulated)?
**A.** 0.417

**Q.** What about the NES (SREBP1_01, TFBT, upregulated) of the same compound?
**A.** 1.757

**Q.** What about the ES (SREBP1_Q6, TFBT, upregulated) of the same compound?
**A.** 0.386

**Q.** What about the NES (SREBP1_Q6, TFBT, upregulated) of the same compound?
**A.** 1.611

**Q.** What about the ES (SRF_01, TFBT, upregulated) of the same compound?
**A.** 0.541

**Q.** And the NES (SRF_01, TFBT, upregulated)?
**A.** 1.708

**Q.** What about the log2FC (SRRM1P2, downregulated noncoding gene) of the same compound?
**A.** −0.97

**Q.** What about the ES [7] of the same compound?
**A.** −0.469

**Q.** And the NES [7]?
**A.** −1.940

**Q.** And the ES [8]?
**A.** −0.667

**Q.** And the NES [8]?
**A.** −2.252

**Q.** And the ES [9]?
**A.** 0.399

**Q.** What about the NES [9] of the same compound?
**A.** 1.843

**Q.** And the log2FC (TEX15, downregulated protein-coding gene)?
**A.** −0.95

**Q.** What about the ES [10] of the same compound?
**A.** 0.359

**Q.** What about the NES [10] of the same compound?
**A.** 1.552

**Q.** And the ES [11]?
**A.** 0.502

**Q.** And the NES [11]?
**A.** 1.859

**Q.** What about the log2FC (TXNRD3NB, downregulated protein-coding gene) of the same compound?
**A.** −0.86

**Q.** And the log2FC (WWTR1-IT1, downregulated noncoding gene)?
**A.** −1.14

**Q.** What about the ES [12] of the same compound?
**A.** −0.521

**Q.** What about the NES [12] of the same compound?
**A.** −1.924

**Q.** And the ES [13]?
**A.** −0.342

**Q.** And the NES [13]?
**A.** −1.914

**Q.** What about the ES [14] of the same compound?
**A.** −0.518

**Q.** And the NES [14]?
**A.** −2.618

**Q.** What about the ES [15] of the same compound?
**A.** −0.457

**Q.** What about the NES [15] of the same compound?
**A.** −2.032

**Q.** And the ES [16]?
**A.** −0.362

**Q.** And the NES [16]?
**A.** −1.929

**Q.** And the log2FC (ZNF37A, downregulated protein-coding gene)?
**A.** −0.93

**Q.** What about the log2FC (ZNF816, downregulated protein-coding gene) of the same compound?
**A.** −1.58

**Q.** And the “log2FC AC027307.3” value [17]?
**A.** 1.20

**Q.** And the “log2FC AC068473.5” value [17]?
**A.** 0.84

**Q.** And the “log2FC AC090826.2” value [17]?
**A.** 0.90

**Q.** What about the “log2FC AC092279.1” value [17] of the same compound?
**A.** 0.84

**Q.** What about the “log2FC AC106886.2” value [17] of the same compound?
**A.** 1.10

**Q.** What about the “log2FC AC141586.1” value [17] of the same compound?
**A.** 1.01

**Q.** And the “log2FC AC239868.4” value [17]?
**A.** 0.91

**Q.** And the “log2FC AL049543.1” value [17]?
**A.** 1.21

**Q.** What about the “log2FC AP001065.1” value [17] of the same compound?
**A.** 0.95

**Q.** And the “log2FC KRT18P31” value [17]?
**A.** 0.89

**Q.** And the “log2FC PCBP2P1” value [17]?
**A.** 0.84

**Q.** What about the “log2FC RN7SL16P” value [17] of the same compound?
**A.** 1.19

**Q.** What about the “log2FC RPS16P5” value [17] of the same compound?
**A.** 0.97

**Q.** And the “log2FC SLC2A1-AS1” value [17]?
**A.** 1.22

**Q.** And the “log2FC SNHG20” value [17]?
**A.** 1.06

**Q.** What about the “log2FC SNORA3B” value [17] of the same compound?
**A.** 0.88

**Q.** And the “log2FC SNORA65” value [17]?
**A.** 1.28

**Q.** And the “log2FC SNORA73B” value [17]?
**A.** 0.91

**Q.** What about the “log2FC SNORA74D” value [17] of the same compound?
**A.** 1.76

**Q.** And the “log2FC SNORD15A” value [17]?
**A.** 0.86

**Q.** And the “log2FC SNORD15B” value [17]?
**A.** 0.90

**Q.** What about the “log2FC SNORD17” value [17] of the same compound?
**A.** 1.17

**Q.** And the “log2FC ST7-AS1” value [17]?
**A.** 0.95

**Q.** And the “log2FC SYPL1P2” value [17]?
**A.** 0.85

**Q.** What about the “log2FC TDRKH-AS1” value [17] of the same compound?
**A.** 0.90

**Q.** And the “log2FC ABHD14B” value [18]?
**A.** 1.28

**Q.** What about the “log2FC AC099811.2” value [18] of the same compound?
**A.** 1.35

**Q.** What about the “log2FC APRT” value [18] of the same compound?
**A.** 1.39

**Q.** What about the “log2FC COMMD5” value [18] of the same compound?
**A.** 1.31

**Q.** What about the “log2FC DBP” value [18] of the same compound?
**A.** 1.90

**Q.** And the “log2FC DDX28” value [18]?
**A.** 1.46

**Q.** And the “log2FC DHCR7” value [18]?
**A.** 1.44

**Q.** What about the “log2FC DOLK” value [18] of the same compound?
**A.** 1.70

**Q.** What about the “log2FC FASN” value [18] of the same compound?
**A.** 1.28

**Q.** What about the “log2FC H2AFX” value [18] of the same compound?
**A.** 1.36

**Q.** And the “log2FC HIST1H1D” value [18]?
**A.** 1.36

**Q.** What about the “log2FC HIST1H2BF” value [18] of the same compound?
**A.** 1.63

**Q.** What about the “log2FC HIST1H3B” value [18] of the same compound?
**A.** 1.82

**Q.** What about the “log2FC HIST1H3C” value [18] of the same compound?
**A.** 1.45

**Q.** What about the “log2FC HIST1H3I” value [18] of the same compound?
**A.** 1.28

**Q.** What about the “log2FC INSIG1” value [18] of the same compound?
**A.** 1.65

**Q.** What about the “log2FC MVK” value [18] of the same compound?
**A.** 1.37

**Q.** What about the “log2FC ORMDL3” value [18] of the same compound?
**A.** 1.39

**Q.** And the “log2FC PCYT2” value [18]?
**A.** 2.03

**Q.** And the “log2FC POP7” value [18]?
**A.** 1.30

**Q.** What about the “log2FC RNF26” value [18] of the same compound?
**A.** 1.71

**Q.** And the “log2FC SCD” value [18]?
**A.** 1.67

**Q.** And the “log2FC SDR39U1” value [18]?
**A.** 1.67
